Columns and labels:
IDH1 R132H = IDH1 R132H (Homo sapiens, UniProt O75874, R132H); experiment: Assay for IDH1 R132H inhibitors (NADPH/aKG, resazurin detection); type: biochemical; conditions: enzyme assay of Example 12; read-out: IDH1R132H IC50
How it was run: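 Read-out is resorufin fluorescence (Ex544/Em590) 5 min after adding a 30 μM resazurin detection mix. Before that, mutant enzyme (0.2 μg/ml in its mix) ran 50 min at room temperature with compound, 8 uM NADPH and 2 mM aKG (mix levels) in Tris pH 7.5 with NaCl, MgCl2, BSA.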

HT1080 cells = experiment: Cellular assay for IDH1m inhibitors: inhibition of 2-HG production (LC-MS, 48 hours) in HT1080 cells; type: cell-based; conditions: Homo sapiens, HT-1080; inhibition of 2-HG production, HT1080 cells; read-out: HT1080 IC50
How it was run: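 The read-out is 2-HG in culture medium, measured by LC-MS after 48 h of compound exposure (0.2% DMSO) in cells plated overnight at 5000 per well in DMEM/10% FBS. IC50 is 50% reduction relative to DMSO wells. Luminescent viability (Cell Titer Glo) followed at 72 h.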

U87MG cells = experiment: Cellular assay for IDH1m inhibitors: inhibition of 2-HG production (LC-MS, 48 hours) in U87MG cells; type: cell-based; conditions: Homo sapiens, U-87 MG, inhibition of 2-HG production, U87R132H cells; read-out: U87R132H IC50
Procedure: Cells (e.g., HT1080 or U87MG) and are grown in T125 flasks in DMEM containing 10% FBS, 1× penicillin/streptomycin and 500 ug/mL G418. They are harvested by trypsin and seeded into 96 well white bottom plates at a density of 5000 cell/well in 100 ul/well in DMEM with 10% FBS. No cells are plates in columns 1 and 12. Cells are incubated overnight at 37° C. in 5% CO2. The next day compounds are made up at 2× concentration and 100 ul are added to each cell well. The final concentration of DMSO is 0.2% and the DMSO control wells are plated in row G. The plates are then placed in the incubator for 48 hours. At 48 hours, 100 μl of media is removed from each well and analyzed by LC-MS for 2-HG concentrations. The cell plate is placed back in the incubator for another 24 hours. At 72 hours post compound addition, 10 mL/plate of Promega Cell Titer Glo reagent is thawed and mixed. The cell plate is removed from the incubator and allowed to equilibrate to room temperature. Then 100 ul of reagent is added to each well of media. The cell plate is then placed on an orbital shaker for 10 minutes and then allowed to sit at room temperature for 20 minutes. The plate is then read for luminescence with an integration time of 500 ms.
The IC50 for inhibition of 2-HG production (concentration of test compound to reduce 2HG production by 50% compared to control) in these two cell lines for various compounds of formula I is set forth in Table 4 above.

Chain of IDH1 R132H (O75874 whole entry R132H): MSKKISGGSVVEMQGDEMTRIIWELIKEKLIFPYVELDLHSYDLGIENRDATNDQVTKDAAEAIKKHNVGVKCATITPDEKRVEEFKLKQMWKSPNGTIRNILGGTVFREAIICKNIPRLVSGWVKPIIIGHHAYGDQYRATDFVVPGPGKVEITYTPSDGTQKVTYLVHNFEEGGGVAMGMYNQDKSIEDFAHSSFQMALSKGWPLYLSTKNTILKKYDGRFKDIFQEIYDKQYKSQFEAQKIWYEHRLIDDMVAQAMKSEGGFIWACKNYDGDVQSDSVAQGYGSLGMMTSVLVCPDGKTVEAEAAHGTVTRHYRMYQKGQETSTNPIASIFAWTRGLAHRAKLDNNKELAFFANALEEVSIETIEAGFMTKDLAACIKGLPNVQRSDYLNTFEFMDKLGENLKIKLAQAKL

SMILES	IC50 (IDH1 R132H) [nM]	IC50 (HT1080 cells) [nM]	IC50 (U87MG cells) [nM]
COCCC(=O)N1CCN(c2nc(C3CC3)c(-c3cccc(C#N)c3)cc2C#N)C[C@H]1C [Compound 283, (R)-5-(3-cyanophenyl)-6-cyclopropyl-2-(4-(3-methoxypropanoyl)-3-methylpiperazin-1-yl)nicotinonitrile]	< 500	500 to 1000	1000 to 10000
COCCC(=O)N1CCN(c2nc(C3CC3)c(-c3cccc(N)c3)cc2C#N)C[C@H]1C [Compound 285, (R)-5-(3-aminophenyl)-6-cyclopropyl-2-(4-(3-methoxypropanoyl)-3-methylpiperazin-1-yl)nicotinonitrile]	< 500	500 to 1000	1000 to 10000
COCCC(=O)N1CCN(c2nc(C3CC3)c(-c3cccc4cnccc34)cc2C#N)C[C@H]1C [Compound 286, (R)-6-cyclopropyl-5-(isoquinolin-5-yl)-2-(4-(3-methoxypropanoyl)-3-methylpiperazin-1-yl)nicotinonitrile]	< 500	< 500	< 500
COCCC(=O)N1CCN(c2nc(C3CC3)c(-c3cccc4[nH]ccc34)cc2C#N)C[C@H]1C [Compound 287, (R)-6-cyclopropyl-5-(1H-indol-4-yl)-2-(4-(3-methoxypropanoyl)-3-methylpiperazin-1-yl)nicotinonitrile]	< 500	1000 to 10000	1000 to 10000
COCCC(=O)N1CCN(c2nc(C3CC3)c(-c3cccc4ncccc34)cc2C#N)C[C@H]1C [Compound 288, (R)-6-cyclopropyl-2-(4-(3-methoxypropanoyl)-3-methylpiperazin-1-yl)-5-(quinolin-5-yl)nicotinonitrile]	< 500	< 500	< 500
COCCC(=O)N1CCN(c2nc(C3CC3)c(OCc3cccc(C(=O)OC)c3)cc2C#N)C[C@H]1C [Compound 292, (R)-methyl 3-((5-cyano-2-cyclopropyl-6-(4-(3-methoxypropanoyl)-3-methylpiperazin-1-yl)pyridin-3-yloxy)methyl)benzoate]	< 500	500 to 1000	1000 to 10000
COCCC(=O)N1CCN(c2nc(C3CC3)c(OCc3ccc(C(=O)OC)cc3)cc2C#N)C[C@H]1C [Compound 293, (R)-methyl 4-((5-cyano-2-cyclopropyl-6-(4-(3-methoxypropanoyl)-3-methylpiperazin-1-yl)pyridin-3-yloxy)methyl)benzoate]	< 500	1000 to 10000	1000 to 10000
COCCC(=O)N1CCN(c2nc(C3CC3)c(OCc3cccc(C#N)c3)cc2C#N)C[C@H]1C [Compound 294, (R)-5-(3-cyanobenzyloxy)-6-cyclopropyl-2-(4-(3-methoxypropanoyl)-3-methylpiperazin-1-yl)nicotinonitrile]	< 500	500 to 1000	500 to 1000
COCCC(=O)N1CCN(c2nc(C3CC3)c(-c3ccc4[nH]ncc4c3)cc2C#N)C[C@H]1C [Compound 295, (R)-6-cyclopropyl-5-(1H-indazol-5-yl)-2-(4-(3-methoxypropanoyl)-3-methylpiperazin-1-yl)nicotinonitrile]	< 500	500 to 1000	500 to 1000
COCCC(=O)N1CCN(c2nc(C3CC3)c(-c3ccc(C(N)=O)cc3)cc2C#N)C[C@H]1C [Compound 296, (R)-4-(5-cyano-2-cyclopropyl-6-(4-(3-methoxypropanoyl)-3-methylpiperazin-1-yl)pyridin-3-yl)benzamide]	< 500	500 to 1000	500 to 1000
COCCC(=O)N1CCN(c2nc(C3CC3)c(-c3cccc(CCO)c3)cc2C#N)C[C@H]1C [Compound 297, (R)-6-cyclopropyl-5-(3-(2-hydroxyethyl)phenyl)-2-(4-(3-methoxypropanoyl)-3-methylpiperazin-1-yl)nicotinonitrile]	< 500	500 to 1000	1000 to 10000
COCCC(=O)N1CCN(c2nc(C3CC3)c(-c3ccc(F)cc3)c(C)c2C#N)C[C@H]1C1CC1 [Compound 299, (R)-6-cyclopropyl-2-(3-cyclopropyl-4-(3-methoxypropanoyl)piperazin-1-yl)-5-(4-fluorophenyl)-4-methylnicotinonitrile]	< 500	500 to 1000	500 to 1000
COCCC(=O)N1CCN(c2nc(C3CC3)c(OCc3ccc(CO)cc3)cc2C#N)C[C@H]1C [Compound 301, (R)-6-cyclopropyl-5-(4-(hydroxymethyl)benzyloxy)-2-(4-(3-methoxypropanoyl)-3-methylpiperazin-1-yl)nicotinonitrile]	< 500	1000 to 10000	1000 to 10000
COCCC(=O)N1CCN(c2nc(C3CC3)c(OC(c3ccccc3)C(C)C)cc2C#N)C[C@H]1C (stereo partly drawn) [Compound 302, 6-cyclopropyl-2-((R)-4-(3-methoxypropanoyl)-3-methylpiperazin-1-yl)-5-(2-methyl-1-phenylpropoxy)nicotinonitrile]	< 500	1000 to 10000	1000 to 10000
COCCC(=O)N1CCN(c2nc(C3CC3)c(O[C@@H](C)c3ccccc3)cc2C#N)C[C@H]1C [Compound 303, 6-cyclopropyl-2-((R)-4-(3-methoxypropanoyl)-3-methylpiperazin-1-yl)-5-((S)-1-phenylethoxy)nicotinonitrile]	< 500	1000 to 10000	1000 to 10000
COCCC(=O)N1CCN(c2nc(C3CC3)c(OCc3cccnc3)cc2C#N)C[C@H]1C [Compound 304, (R)-6-cyclopropyl-2-(4-(3-methoxypropanoyl)-3-methylpiperazin-1-yl)-5-(pyridin-3-ylmethoxy)nicotinonitrile]	< 500	1000 to 10000	500 to 1000
COCCC(=O)N1CCN(c2nc(C3CC3)c(O[C@H](C)c3ccccc3)cc2C#N)C[C@H]1C [Compound 307, 6-cyclopropyl-2-((R)-4-(3-methoxypropanoyl)-3-methylpiperazin-1-yl)-5-((R)-1-phenylethoxy)nicotinonitrile]	< 500	1000 to 10000	1000 to 10000
CCC(Oc1cc(C#N)c(N2CCN(C(=O)CCOC)[C@H](C)C2)nc1C1CC1)c1ccccc1 (stereo partly drawn) [Compound 308, 6-cyclopropyl-2-((R)-4-(3-methoxypropanoyl)-3-methylpiperazin-1-yl)-5-(1-phenylpropoxy)nicotinonitrile]	< 500	1000 to 10000	1000 to 10000
COCCC(=O)N1CCN(c2nc(C3CC3)c(OCc3ccncc3)cc2C#N)C[C@H]1C [Compound 309, (R)-6-cyclopropyl-2-(4-(3-methoxypropanoyl)-3-methylpiperazin-1-yl)-5-(pyridin-4-ylmethoxy)nicotinonitrile]	< 500	500 to 1000	500 to 1000
COCCC(=O)N1CCN(c2nc(C3CC3)c(OCc3cccc([N+](=O)[O-])c3)cc2C#N)C[C@H]1C [Compound 312, (R)-6-cyclopropyl-2-(4-(3-methoxypropanoyl)-3-methylpiperazin-1-yl)-5-(3-nitrobenzyloxy)nicotinonitrile]	< 500	500 to 1000	1000 to 10000
COCCC(=O)N1CCN(c2nc(C3CC3)c(-c3ccc4c(c3)NC(=O)C4)cc2C#N)C[C@H]1C [Compound 313, (R)-6-cyclopropyl-2-(4-(3-methoxypropanoyl)-3-methylpiperazin-1-yl)-5-(2-oxoindolin-6-yl)nicotinonitrile]	< 500	1000 to 10000	500 to 1000
COCCC(=O)N1CCN(c2nc(C3CC3)c(-c3ccnc4ccccc34)cc2C#N)C[C@H]1C [Compound 315, (R)-6-cyclopropyl-2-(4-(3-methoxypropanoyl)-3-methylpiperazin-1-yl)-5-(quinolin-4-yl)nicotinonitrile]	< 500	< 500	500 to 1000
COCCC(=O)N1CCN(c2nc(C3CC3)c(-c3cccnc3OC)c(C)c2C#N)C[C@H]1C [Compound 320, (R)-2-cyclopropyl-2′-methoxy-6-[4-(3-methoxy-propionyl)-3-methyl-piperazin-1-yl]-4-methyl-[3,3′]bipyridinyl-5-carbonitrile]	< 500	500 to 1000	< 500
COCCC(=O)N1CCN(c2nc(C3CC3)c(-c3ccc(F)c(C#N)c3)c(C)c2C#N)C[C@H]1C [Compound 321, (R)-5-(3-cyano-4-fluoro-phenyl)-6-cyclopropyl-2-[4-(3-methoxy-propionyl)-3-methyl-piperazin-1-yl]-4-methyl-nicotinonitrile]	< 500	500 to 1000	< 500

Source: US9856279B2 (AGIOS PHARMACEUTICALS, INC, priority 2011, dated 2018)
